Measured values as given in ChEMBL document CHEMBL3885881, “DrugMatrix”.

Species on record: Rattus norvegicus
Experiment: DrugMatrix - Regimen: Daily Repeat
Assay type: toxicity, organism-based, Sprague-Dawley
Set-up: regimen Daily Repeat, gender Male, age 6-8 weeks
Conditions: in vivo, po, route oral GAVAGE, vehicle 100 % WATER; for ABSOLUTE BASOPHIL / ABSOLUTE EOSINOPHIL / ABSOLUTE LYMPHOCYTE / ABSOLUTE MONOCYTE / ABSOLUTE SEGMENTED NEUTROPHIL / BASOPHIL / EOSINOPHIL / ERYTHROCYTE COUNT / HEMATOCRIT / HEMOGLOBIN / LEUKOCYTE COUNT / LYMPHOCYTE / MEAN CORPUSCULAR HEMOGLOBIN / MEAN CORPUSCULAR HEMOGLOBIN CONCENTRATION / MEAN CORPUSCULAR VOLUME / MONOCYTE / NEUTROPHIL / NUCLEATED RED BLOOD CELLS / PLATELET COUNT: tissue Blood; for ALANINE AMINOTRANSFERASE / ALBUMIN / ALKALINE PHOSPHATASE / ASPARTATE AMINOTRANSFERASE / BLOOD UREA NITROGEN / CARBON DIOXIDE / CHLORIDE / CHOLESTEROL / CREATINE PHOSPHOKINASE / CREATININE / GLUCOSE / LACTATE DEHYDROGENASE / LIPASE / PHOSPHORUS / POTASSIUM / SODIUM / TOTAL BILIRUBIN / TOTAL PROTEIN / URIC ACID: tissue Plasma
[1] = 160 mg/kg, 120 h, dose level Low, time 5 day
[2] = 1000 mg/kg, 72 h, dose level High, time 3 day
[3] = 1000 mg/kg, 120 h, dose level High, time 5 day

## N[C@@H](Cc1ccc(O)c(O)c1)C(=O)O [LEVODOPA]
[1]
  ABSOLUTE BASOPHIL: 0 CELLS/uL
  ABSOLUTE EOSINOPHIL: 0 CELLS/uL
  ABSOLUTE LYMPHOCYTE: 7319.33 CELLS/uL
  ABSOLUTE MONOCYTE: 56 CELLS/uL
  ABSOLUTE SEGMENTED NEUTROPHIL: 1058 CELLS/uL
  BASOPHIL: 0%
  EOSINOPHIL: 0%
  ERYTHROCYTE COUNT: 5.23 x10E6/uL
  HEMATOCRIT: 34.27%
  HEMOGLOBIN: 13 G/DL
  LEUKOCYTE COUNT: 8.43 x10E3/uL
  LYMPHOCYTE: 87.67%
  MEAN CORPUSCULAR HEMOGLOBIN: 25.13 pg
  MEAN CORPUSCULAR HEMOGLOBIN CONCENTRATION: 38 G/DL
  MEAN CORPUSCULAR VOLUME: 66.13 fL
  MONOCYTE: 0.67%
  NEUTROPHIL: 11.67%
  NUCLEATED RED BLOOD CELLS: 0 /100WBC
  PLATELET COUNT: 1259.67 x10E3/uL
  ALANINE AMINOTRANSFERASE: 48 u/L
  ALBUMIN: 4.1 G/DL
  ALKALINE PHOSPHATASE: 360.33 u/L
  ASPARTATE AMINOTRANSFERASE: 84.33 u/L
  BLOOD UREA NITROGEN: 16 mg/dL
  CARBON DIOXIDE: 30.33 mmol/L
  CHLORIDE: 103 MEQ/L
  CHOLESTEROL: 58 mg/dL
  CREATINE PHOSPHOKINASE: 286.33 u/L
  CREATININE: 0.17 mg/dL
  GLUCOSE: 137 mg/dL
  LACTATE DEHYDROGENASE: 128 u/L
  LIPASE: 10 u/L
  PHOSPHORUS: 10.63 mg/dL
  POTASSIUM: 6.08 MEQ/L
  SODIUM: 145.37 MEQ/L
  TOTAL BILIRUBIN: 0.17 mg/dL
  TOTAL PROTEIN: 5.97 G/DL
  URIC ACID: 1.03 mg/dL
[2]
  ABSOLUTE BASOPHIL: 0 CELLS/uL
  ABSOLUTE EOSINOPHIL: 0 CELLS/uL
  ABSOLUTE LYMPHOCYTE: 14031 CELLS/uL
  ABSOLUTE MONOCYTE: 188.67 CELLS/uL
  ABSOLUTE SEGMENTED NEUTROPHIL: 780.33 CELLS/uL
  BASOPHIL: 0%
  EOSINOPHIL: 0%
  ERYTHROCYTE COUNT: 5.75 x10E6/uL
  HEMATOCRIT: 36.23%
  HEMOGLOBIN: 13.9 G/DL
  LEUKOCYTE COUNT: 15 x10E3/uL
  LYMPHOCYTE: 93.33%
  MEAN CORPUSCULAR HEMOGLOBIN: 24.2 pg
  MEAN CORPUSCULAR HEMOGLOBIN CONCENTRATION: 38.37 G/DL
  MEAN CORPUSCULAR VOLUME: 63 fL
  MONOCYTE: 1%
  NEUTROPHIL: 5.67%
  NUCLEATED RED BLOOD CELLS: 0.33 /100WBC
  PLATELET COUNT: 1320 x10E3/uL
  ALANINE AMINOTRANSFERASE: 57.33 u/L
  ALBUMIN: 4.13 G/DL
  ALKALINE PHOSPHATASE: 415 u/L
  ASPARTATE AMINOTRANSFERASE: 88 u/L
  BLOOD UREA NITROGEN: 14 mg/dL
  CARBON DIOXIDE: 32 mmol/L
  CHLORIDE: 101.67 MEQ/L
  CHOLESTEROL: 54.33 mg/dL
  CREATINE PHOSPHOKINASE: 336.67 u/L
  CREATININE: 0.2 mg/dL
  GLUCOSE: 120 mg/dL
  LACTATE DEHYDROGENASE: 167.33 u/L
  LIPASE: 10.33 u/L
  PHOSPHORUS: 11 mg/dL
  POTASSIUM: 6.09 MEQ/L
  SODIUM: 145.53 MEQ/L
  TOTAL BILIRUBIN: 0.17 mg/dL
  TOTAL PROTEIN: 6.07 G/DL
  URIC ACID: 0.8 mg/dL
[3]
  ABSOLUTE BASOPHIL: 0 CELLS/uL
  ABSOLUTE EOSINOPHIL: 0 CELLS/uL
  ABSOLUTE LYMPHOCYTE: 11289.33 CELLS/uL
  ABSOLUTE MONOCYTE: 104.67 CELLS/uL
  ABSOLUTE SEGMENTED NEUTROPHIL: 539.33 CELLS/uL
  BASOPHIL: 0%
  EOSINOPHIL: 0%
  ERYTHROCYTE COUNT: 6.06 x10E6/uL
  HEMATOCRIT: 37.27%
  HEMOGLOBIN: 14.47 G/DL
  LEUKOCYTE COUNT: 11.93 x10E3/uL
  LYMPHOCYTE: 95.33%
  MEAN CORPUSCULAR HEMOGLOBIN: 23.87 pg
  MEAN CORPUSCULAR HEMOGLOBIN CONCENTRATION: 38.83 G/DL
  MEAN CORPUSCULAR VOLUME: 61.43 fL
  MONOCYTE: 0.67%
  NEUTROPHIL: 4%
  NUCLEATED RED BLOOD CELLS: 0 /100WBC
  PLATELET COUNT: 1582 x10E3/uL
  ALANINE AMINOTRANSFERASE: 46.33 u/L
  ALBUMIN: 4.17 G/DL
  ALKALINE PHOSPHATASE: 308.33 u/L
  ASPARTATE AMINOTRANSFERASE: 68 u/L
  BLOOD UREA NITROGEN: 20.33 mg/dL
  CARBON DIOXIDE: 33.67 mmol/L
  CHLORIDE: 101.67 MEQ/L
  CHOLESTEROL: 59.33 mg/dL
  CREATINE PHOSPHOKINASE: 271.67 u/L
  CREATININE: 0.21 mg/dL
  GLUCOSE: 124 mg/dL
  LACTATE DEHYDROGENASE: 116.67 u/L
  LIPASE: 10 u/L
  PHOSPHORUS: 10.37 mg/dL
  POTASSIUM: 6.24 MEQ/L
  SODIUM: 147.43 MEQ/L
  TOTAL BILIRUBIN: 0.17 mg/dL
  TOTAL PROTEIN: 6.13 G/DL
  URIC ACID: 1.2 mg/dL
